According to US11142525B2 (Pfizer Inc., priority 2018, dated 2021):
Like-named read-outs stand apart in the source and are kept apart here.

Tests used:
[1] = system: phospho-SLP-76 (Ser376) in Jurkat cells; assay: Phospho-SLP-76 (Ser376) Homogeneous Time Resolved Fluorescence (HTRF) assay in Jurkat cells; type: cell-based; settings: Homo sapiens, read-out: SLP76 Assay_IC50
Summary of the method: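 Jurkat cells pre-treated 30 min with compounds (10 μM to 0.1 nM, 11-point, 0.1% DMSO), then stimulated with 200 μg/mL F(ab)2-complexed anti-CD3 (UCHT1) for 15 min at 37 °C. Lysate phospho-SLP-76 detected by HTRF after overnight antibody incubation; IC50 from four-parameter fit.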

[2] = target: human full-length recombinant HPK1 (Homo sapiens (Human), UniProt Q92918); assay: HPK1 biochemical enzyme assay, microfluidic mobility shift assay (MSA); settings: read-out: HPK1 Enzyme Assay_Ki
[3] = 30 min pre-treatment, anti-CD3 stimulation 15 min, HTRF
[4] = mobility shift assay, 75 μM ATP, Morrison equation, tight-binding competitive inhibition
[5] = Phospho-SLP-76 (Ser376) HTRF, anti-CD3 stimulation

human full-length recombinant HPK1, sequence (Q92918 whole entry): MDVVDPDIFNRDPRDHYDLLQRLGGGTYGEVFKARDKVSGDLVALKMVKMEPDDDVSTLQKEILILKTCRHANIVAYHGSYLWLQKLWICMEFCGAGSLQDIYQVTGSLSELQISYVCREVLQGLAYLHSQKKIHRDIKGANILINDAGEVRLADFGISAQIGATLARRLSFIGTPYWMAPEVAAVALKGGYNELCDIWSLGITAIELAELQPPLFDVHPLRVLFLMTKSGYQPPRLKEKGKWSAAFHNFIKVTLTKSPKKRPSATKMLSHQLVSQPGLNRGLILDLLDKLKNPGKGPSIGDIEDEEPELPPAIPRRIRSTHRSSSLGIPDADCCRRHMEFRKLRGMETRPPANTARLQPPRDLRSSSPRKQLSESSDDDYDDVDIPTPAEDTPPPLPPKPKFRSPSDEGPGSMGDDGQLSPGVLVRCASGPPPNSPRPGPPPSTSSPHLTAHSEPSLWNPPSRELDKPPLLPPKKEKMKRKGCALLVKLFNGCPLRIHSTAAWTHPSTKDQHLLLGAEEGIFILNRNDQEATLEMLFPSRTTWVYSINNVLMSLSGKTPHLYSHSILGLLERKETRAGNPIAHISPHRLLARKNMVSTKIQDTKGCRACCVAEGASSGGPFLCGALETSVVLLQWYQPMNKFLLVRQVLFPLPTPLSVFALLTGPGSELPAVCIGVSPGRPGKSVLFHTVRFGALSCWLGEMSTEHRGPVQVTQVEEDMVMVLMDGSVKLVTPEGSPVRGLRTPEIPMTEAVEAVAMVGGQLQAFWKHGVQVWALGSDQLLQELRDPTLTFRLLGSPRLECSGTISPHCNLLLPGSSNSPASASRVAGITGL

Compound	IC50 [1, 3] [nM]	Ki [2, 4] [nM]	IC50 [1, 5] [nM]	Ki ([2]; HPK1 mobility shift assay) [nM]
CCN(C)c1cc2c(c(CN)n1)CN(c1cccc(-c3nncn3CC)n1)C2=O [Example 60, 4-(aminomethyl)-6-[ethyl(methyl)amino]-2-[6-(4-ethyl-4H-1,2,4-triazol-3-yl)pyridin-2-yl]-2,3-dihydro-1H-pyrrolo[3,4-c]pyridin-1-one]	70	0.17		
CCn1c(C)nnc1-c1cccc(N2Cc3c(cc(N4CCC[C@H]4C)nc3CN)C2=O)n1 [Example 61, 4-(aminomethyl)-2-[6-(4-ethyl-5-methyl-4H-1,2,4-triazol-3-yl)pyridin-2-yl]-6-[(2R)-2-methylpyrrolidin-1-yl]-2,3-dihydro-1H-pyrrolo[3,4-c]pyridin-1-one]	88	0.18		
CNCc1nc(C2(C)CC2)cc2c1CN(c1cccc(-c3nncn3C3CCC3)n1)C2=O [Example 65, 2-[6-(4-cyclobutyl-4H-1,2,4-triazol-3-yl)pyridin-2-yl]-4-[(methylamino)methyl]-6-(1-methylcyclopropyl)-2,3-dihydro-1H-pyrrolo[3,4-c]pyridin-1-one]	114	0.35		
CCc1nnc(-c2cccc(N3Cc4c(cc(N5CCC[C@H]5C)nc4CNC)C3=O)n2)n1CC [Example 66, 2-[6-(4,5-diethyl-4H-1,2,4-triazol-3-yl)pyridin-2-yl]-4-[(methylamino)methyl]-6-[(2R)-2-methylpyrrolidin-1-yl]-2,3-dihydro-1H-pyrrolo[3,4-c]pyridin-1-one]	108	0.52		
C[C@@H]1CCCN1c1cc2c(c(CN)n1)CN(c1cccc(N3C(=O)OC[C@@H]3CF)n1)C2=O [Example 68, 4-(aminomethyl)-2-{6-[(4R)-4-(fluoromethyl)-2-oxo-1,3-oxazolidin-3-yl]pyridin-2-yl}-6-[(2R)-2-methylpyrrolidin-1-yl]-2,3-dihydro-1H-pyrrolo[3,4-c]pyridin-1-one]	50	< 0.07		
CNCc1nc(N(C)C(C)C)cc2c1CN(c1cccc(N3C(=O)OC[C@@H]3C)n1)C2=O [Example 74, 4-[(methylamino)methyl]-2-{6-[(4S)-4-methyl-2-oxo-1,3-oxazolidin-3-yl]pyridin-2-yl}-6-[methyl(propan-2-yl)amino]-2,3-dihydro-1H-pyrrolo[3,4-c]pyridin-1-one]			77	0.06
CCN(CC)c1cc2c(c(CN)n1)CN(c1cccc(-c3nncn3CC)n1)C2=O [Example 75, 4-(aminomethyl)-6-(diethylamino)-2-[6-(4-ethyl-4H-1,2,4-triazol-3-yl)pyridin-2-yl]-2,3-dihydro-1H-pyrrolo[3,4-c]pyridin-1-one]			118	0.52
CCCn1cnnc1-c1cccc(N2Cc3c(cc(N(C)C(C)C)nc3CN)C2=O)n1 [Example 82, 4-(aminomethyl)-6-[methyl(propan-2-yl)amino]-2-[6-(4-propyl-4H-1,2,4-triazol-3-yl)pyridin-2-yl]-2,3-dihydro-1H-pyrrolo[3,4-c]pyridin-1-one]			95	0.12

Further lines, results first:

IC50 [1, 3] [nM]	Ki [2, 4] [nM]	IC50 [1, 5] [nM]	Ki ([2]; HPK1 mobility shift assay) [nM]	Compound
74	0.21			CCC(CC)n1cnnc1-c1cccc(N2Cc3c(cc(C4(C)CC4)nc3CNC)C2=O)n1 [Example 57, 4-[(methylamino)methyl]-6-(1-methylcyclopropyl)-2-{6-[4-(pentan-3-yl)-4H-1,2,4-triazol-3-yl]pyridin-2-yl}-2,3-dihydro-1H-pyrrolo[3,4-c]pyridin-1-one]
103	0.16			CC[C@H](C)n1cnnc1-c1cccc(N2Cc3c(cc(C4(C)CC4)nc3CNC)C2=O)n1 [Example 58, 2-(6-{4-[(2S)-butan-2-yl]-4H-1,2,4-triazol-3-yl}pyridin-2-yl)-4-[(methylamino)methyl]-6-(1-methylcyclopropyl)-2,3-dihydro-1H-pyrrolo[3,4-c]pyridin-1-one]
59	0.19			CCCn1cnnc1-c1cccc(N2Cc3c(cc(N(C)CC)nc3CNC)C2=O)n1 [Example 59, 6-[ethyl(methyl)amino]-4-[(methylamino)methyl]-2-[6-(4-propyl-4H-1,2,4-triazol-3-yl)pyridin-2-yl]-2,3-dihydro-1H-pyrrolo[3,4-c]pyridin-1-one]
		248	0.53	CNCc1nc(C2CCC2)cc2c1CN(c1cccc(-c3nncn3C(C)C)n1)C2=O [Example 69, 6-cyclobutyl-4-[(methylamino)methyl]-2-{6-[4-(propan-2-yl)-4H-1,2,4-triazol-3-yl]pyridin-2-yl}-2,3-dihydro-1H-pyrrolo[3,4-c]pyridin-1-one]
		62	0.16	CCN(c1cc2c(c(CNC)n1)CN(c1cccc(-c3nncn3C(C)C)n1)C2=O)C(C)C [Example 70, 6-[ethyl(propan-2-yl)amino]-4-[(methylamino)methyl]-2-{6-[4-(propan-2-yl)-4H-1,2,4-triazol-3-yl]pyridin-2-yl}-2,3-dihydro-1H-pyrrolo[3,4-c]pyridin-1-one]
		40	0.18	CCn1cnnc1-c1cccc(N2Cc3c(cc(N(C)C(C)C)nc3CNC)C2=O)n1 [Example 71, 2-[6-(4-ethyl-4H-1,2,4-triazol-3-yl)pyridin-2-yl]-4-[(methylamino)methyl]-6-[methyl(propan-2-yl)amino]-2,3-dihydro-1H-pyrrolo[3,4-c]pyridin-1-one]
		583	0.64	CCNc1cc2c(c(CNC)n1)CN(c1cccc(-c3nncn3CC)n1)C2=O [Example 76, 6-(ethylamino)-2-[6-(4-ethyl-4H-1,2,4-triazol-3-yl)pyridin-2-yl]-4-[(methylamino)methyl]-2,3-dihydro-1H-pyrrolo[3,4-c]pyridin-1-one]
		307	0.73	CNCc1nc(NC(C)C)cc2c1CN(c1cccc(-c3nncn3C(C)C)n1)C2=O [Example 78, 4-[(methylamino)methyl]-6-(propan-2-ylamino)-2-{6-[4-(propan-2-yl)-4H-1,2,4-triazol-3-yl]pyridin-2-yl}-2,3-dihydro-1H-pyrrolo[3,4-c]pyridin-1-one]
		48	< 0.05	CC(C)N(C)c1cc2c(c(CN)n1)CN(c1cccc(-c3nncn3C(C)C)n1)C2=O [Example 79, 4-(aminomethyl)-6-[methyl(propan-2-yl)amino]-2-{6-[4-(propan-2-yl)-4H-1,2,4-triazol-3-yl]pyridin-2-yl}-2,3-dihydro-1H-pyrrolo[3,4-c]pyridin-1-one]
		184	0.16	CCCn1cnnc1-c1cccc(N2Cc3c(cc(N(CC)CC)nc3CNC)C2=O)n1 [Example 80, 6-(diethylamino)-4-[(methylamino)methyl]-2-[6-(4-propyl-4H-1,2,4-triazol-3-yl)pyridin-2-yl]-2,3-dihydro-1H-pyrrolo[3,4-c]pyridin-1-one]
		406	0.58	CNCc1nc(N(C)C(C)C)cc2c1CN(c1cccc(-c3nncn3C)n1)C2=O [Example 81, 4-[(methylamino)methyl]-6-[methyl(propan-2-yl)amino]-2-[6-(4-methyl-4H-1,2,4-triazol-3-yl)pyridin-2-yl]-2,3-dihydro-1H-pyrrolo[3,4-c]pyridin-1-one]
		6640	35.2	CNCc1nc(C2(C)CC2)cc2c1CN(c1ccc(F)c(-c3nncn3C(C)C)n1)C2=O [Example 83, 2-{5-fluoro-6-[4-(propan-2-yl)-4H-1,2,4-triazol-3-yl]pyridin-2-yl}-4-[(methylamino)methyl]-6-(1-methylcyclopropyl)-2,3-dihydro-1H-pyrrolo[3,4-c]pyridin-1-one]
